A word on the IC50: it is the concentration needed to halve the response being measured. A lower IC50 goes with greater potency.

Sequence of PIK3CA (P42336 whole entry, looked up): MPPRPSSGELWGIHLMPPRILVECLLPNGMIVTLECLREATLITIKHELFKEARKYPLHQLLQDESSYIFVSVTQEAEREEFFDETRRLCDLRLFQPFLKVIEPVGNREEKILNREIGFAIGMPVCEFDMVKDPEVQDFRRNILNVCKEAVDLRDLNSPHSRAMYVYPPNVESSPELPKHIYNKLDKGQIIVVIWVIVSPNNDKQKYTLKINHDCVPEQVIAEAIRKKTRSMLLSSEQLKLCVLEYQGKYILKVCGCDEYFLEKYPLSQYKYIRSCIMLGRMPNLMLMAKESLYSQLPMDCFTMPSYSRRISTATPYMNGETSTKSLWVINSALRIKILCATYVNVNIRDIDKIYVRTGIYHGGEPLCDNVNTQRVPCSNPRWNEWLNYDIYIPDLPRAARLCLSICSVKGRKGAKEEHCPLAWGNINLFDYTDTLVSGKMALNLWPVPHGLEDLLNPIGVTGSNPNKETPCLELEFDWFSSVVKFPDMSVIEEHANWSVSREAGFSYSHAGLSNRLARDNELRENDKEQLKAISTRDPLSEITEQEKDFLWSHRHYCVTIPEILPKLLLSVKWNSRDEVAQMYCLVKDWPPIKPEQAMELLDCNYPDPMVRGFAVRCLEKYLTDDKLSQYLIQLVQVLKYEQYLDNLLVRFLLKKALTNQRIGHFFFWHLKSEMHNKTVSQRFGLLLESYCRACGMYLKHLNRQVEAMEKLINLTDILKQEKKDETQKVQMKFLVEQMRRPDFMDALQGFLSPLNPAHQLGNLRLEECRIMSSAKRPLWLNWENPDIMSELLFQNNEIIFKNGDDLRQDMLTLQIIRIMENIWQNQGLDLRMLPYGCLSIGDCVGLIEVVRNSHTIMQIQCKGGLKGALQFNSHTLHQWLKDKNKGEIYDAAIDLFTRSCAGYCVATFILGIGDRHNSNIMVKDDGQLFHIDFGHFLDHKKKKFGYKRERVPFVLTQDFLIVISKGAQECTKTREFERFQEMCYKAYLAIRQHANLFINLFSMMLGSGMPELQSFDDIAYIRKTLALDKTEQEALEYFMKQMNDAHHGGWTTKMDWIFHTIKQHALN

This assay concerns the target PIK3CA (UniProt P42336). The assay can be described thus: In Vitro Inhibition of PIK3CA Kinase Activity.
`O=c1cc(N2CCOCC2)oc2cc3ccccc3cc12` came in with an IC50 of 16 µM.
In the case of `O=c1cc(N2CCOCC2)nc2c3ccccc3ccn12`, the IC50 was 750 µM.
Regarding `O=c1cc(N2CCOCC2)oc2c1ccc1ccccc12`, the IC50 came out at 20 µM.
`O=C1c2ccccc2C(=O)N1CCCOc1ccc2c(=O)cc(N3CCOCC3)oc2c1`: the IC50 came out at 6 µM.
The same measure for `CC1CN(c2cc(=O)c3ccc4ccccc4c3o2)CCO1` (stereo not given): 2.5 µM; for `CC(C)(C)c1ccc(-c2cc(=O)cc(N3CCOCC3)o2)cc1`: 37 µM.
In turn, `O=c1cc(N2CCSCC2)oc2c1ccc1ccccc12` gave an IC50 of 6 µM.
With `O=c1cc(-c2ccccc2)oc(N2CCOCC2)c1`, the IC50 is 30 µM.
The compound `O=c1cc(-c2ccc(Cl)cc2)oc(N2CCOCC2)c1` showed an IC50 of 10 µM.
As to `O=c1cc(N2CCOCC2)oc2cc(OCc3ccc(Cl)cc3)ccc12`, the IC50 was > 100 µM.
The compound `O=c1cc(N2CCOCC2)oc2ccc3ccccc3c12` came in with an IC50 of 11 µM.
Consider `O=c1cc(N2CCOCC2)oc2c3c(ccc12)CCCC3`, for which the IC50 stood at 18 µM. Compared with the last compound, the IC50 is about 1.6-fold higher.
In turn, `COc1ccc(-c2cc(=O)cc(N3CCOCC3)o2)cc1` yielded an IC50 of 15 µM.
With `O=c1cc(-c2ccc(F)cc2)oc(N2CCOCC2)c1` the figure was 13 µM.
The same measure for `O=c1cc(N2CCOCC2)oc2cc(OCc3ccc(F)cc3)ccc12`: 95 µM.

Values taken from the Kinase Knowledgebase extract (Sharma et al. 2016).
